Data set [1] relates to central nervous system. Put plainly: antiserotoninic effects in vivo at the level of the central nervous system. As to conditions: s.c.
The subject of another data set is dogs. Put plainly: peripheral vasoconstrictive hypertensive action in vivo, in dogs.
The test system of data set [2] is smooth muscles of the vessels. Kind of data set: antiserotoninic effects in vivo at the level of the smooth muscles of the vessels. As to conditions: e.v.
In data set [3] the test system is alpha-adrenergic receptors. Put plainly: stimulation of the alpha-adrenergic receptors. Particulars: on the basis of the tests carried out.
A short description of another data set: acute toxicity. Particulars: in vivo. From the text:
(§1) The active dosages are comprised between 5 and 20 micrograms/ml in vitro, and from 50 to 500 micrograms/kilogram e.v. The acute toxicity of the compound LI has proven to be extremely low and consequently the therapeutic index is favorable for its use as a spasmolytic of the smooth muscles of the vessels and organs other than vessels.

For data set [4], the system named is bowel and vessel muscles. Put plainly: spasmolytic properties on the bowel and vessel muscles in vitro.
From the text: as §1

Data set [5] concerns bowel and vessel muscles. Put plainly: spasmolytic properties on the bowel and vessel muscles in vivo.
From the text: as §1

Data set [6] deals with central nervous system. Kind of data set: stimulation of the central nervous system. Particulars: in vivo.
A short description of the next data set: therapeutic index. The class given is in vivo.
From the text: The active concentrations are comprised between 2 and 20 micrograms per ml. […] The range of the active dosages is comprised between 20 and 100 micrograms/kilogram e.v. In vitro, the compound XXXVIII releases the muscles of the aorta of rabbits at concentrations of 50-100 micrograms/ml. The therapeutic index is favourable for an indication of the product as an antispastic of the gastro-intestinal system and the biliary tract.
as §1

For data set [7], the system named is muscles of the peripheral vessels. Kind of data set: spasmolytic effects in vivo on the muscles of the peripheral vessels. As to conditions: e.v.
From the text: as §1

Another data set relates to ileum. Kind of data set: spasmolytic activity on isolated ileum of guinea pigs.
From the text: as §1
In addition, the compound IV acts on the trachea of guinea pigs as a releasing agent at the concentration of 0.5-1 microgram/ml. On the ileum of the same animals, as a spasmolytic at a concentration of 50-100 micrograms/ml and on the uterus and stomach of rats as an antiserotoninic at the concentration of 0.05-0.1 micrograms/ml. […] The compound on the basis of the pharmacological and toxicological properties which have been detected can be employed for the treatment of headaches.

In a further data set the test system is deferent vessel. Put plainly: spasmolytic activity on isolated deferent vessel of rats.
From the text: as §1

With `CN(C)C(=O)OC[C@@H]1C=C2c3cccc4[nH]cc(c34)C[C@H]2N(C)C1` [compound IV], in the data set on central nervous system [1], the “active dosages (antiserotoninic, central nervous system)” value was 0.5-1 milligrams/kilograms. In addition, in the data set on dogs (dogs and cats, e.v.), the “dose dependence of the vasoconstrictive hypertensive effect” value was “proportional to the dosage”. Also, the “peripheral vasoconstrictive hypertensive action” value in the data set on dogs (in vivo) is on record as “strong peripheral vasoconstrictive hypertensive action”. The “active dosages (antiserotoninic, smooth muscles of the vessels)” value in data set [2] is on record as 5-10 micrograms/kilogram. Further, in data set [3], the “action on the alpha-adrenergic receptors” value was “stimulant of the alpha-adrenergic receptors”.
As for `CC(Cc1ccccc1)NC(=O)OC[C@@H]1C[C@@H]2c3cccc4[nH]cc(c34)C[C@H]2N(C)C1` (stereo partly drawn) [compound LI, D-6-methyl-8β-(α-methylphenethylaminocarbonyloxymethyl)-ergoline], the acute toxicity entry in “acute toxicity” was “extremely low”. Also, the “spasmolytic properties on the bowel and vessel muscles” value is “retained” in the data set with bowel and vessel muscles [4]; “retained” in the data set with bowel and vessel muscles [5]. Besides, the “stimulating effects on the central nervous system” value in the data set with central nervous system [6] is “lost the stimulating effects on the central nervous system”. Besides, the therapeutic index result in the data set “therapeutic index” (as spasmolytic of the smooth muscles of the vessels and organs other than vessels) is “favorable”.
For the molecule `CC(Cc1ccccc1)NC(=O)OC[C@@H]1C=C2c3cccc4[nH]cc(c34)C[C@H]2N(C)C1` (stereo partly drawn) [compound XXV, D-6-methyl-8β-(α-methylphenethylaminocarbonyloxymethyl)-9,10-didehydroergoline], in [7], the “dosages (spasmolytic effects on the muscles of the peripheral vessels)” value is 20-200 micrograms/kilogram. Also, the spasmolytic activity entry in the data set on ileum and in the data set with deferent vessel was “considerable spasmolytic activity” each time. Further, the “stimulating effects on the central nervous system” value in the data set with central nervous system [6] was “interesting actions which stimulated the central nervous system”.
Regarding `CN1C[C@H](COC(=O)N2CCCCCC2)C[C@@H]2c3cccc4[nH]cc(c34)C[C@H]21` [compound XXXVIII, D-6-methyl-8β-(perhydroazepinylcarbonyloxymethyl)-ergoline], the therapeutic index entry in “therapeutic index” (as antispastic of the gastro-intestinal system and the biliary tract) was “favourable”.

Values taken from patent US4057635A, “Carbamates of ergolines and therapeutic compositions therewith” (Simes Societa Italiana Medicinali e Sintetici S.p.A., priority 1973, dated 1977).
